From patent publication US10030016B2 (Sunesis Pharmaceuticals, Inc., priority 2009, dated 2018)
Structures can show the parent of a compound that is named as a salt. Where two headings read alike, the source gives them in different places.

Assays:
[1] = test system: phospho-akt (Thr308) in PC-3 cells; assay: Inhibition of phospho-akt (Thr308) in PC-3 cells, MSD phospho-akt 308 ELISA kit; format: cell-based; conditions: Homo sapiens, 2 hours, no serum, read-out: EC50
Summary of the method: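 Read-out is MSD electrochemiluminescence of Akt phosphorylated at Thr308 in lysates of PC-3 cells treated 2 h with compound in serum-free medium. Wortmannin at 5 μM defined the low control and DMSO the high control.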

[2] = molecular target: PDK1 (Homo sapiens (Human), UniProt O15530); assay: PDK1 kinase assay (coupled PDK1/AKT/FAM-crosstide assay, IMAP fluorescence polarization); format: biochemical
Summary of the method: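 PDK1 activity is measured indirectly through activation of a PIFtide-fused AKT2 construct that phosphorylates FAM-crosstide (100 nM). The reaction uses 0.75 nM PDK1, 40 μM ATP, 30 min, 25° C, with IMAP polarization detection.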

[3] = inhibition of P308 Akt in PC-3 cells, MSD
[4] = inhibition of phospo-PDK1 in vitro
[5] = inhibition of P308 Akt in PC-3 cells using MSD

Sequence of PDK1 (O15530 51-359): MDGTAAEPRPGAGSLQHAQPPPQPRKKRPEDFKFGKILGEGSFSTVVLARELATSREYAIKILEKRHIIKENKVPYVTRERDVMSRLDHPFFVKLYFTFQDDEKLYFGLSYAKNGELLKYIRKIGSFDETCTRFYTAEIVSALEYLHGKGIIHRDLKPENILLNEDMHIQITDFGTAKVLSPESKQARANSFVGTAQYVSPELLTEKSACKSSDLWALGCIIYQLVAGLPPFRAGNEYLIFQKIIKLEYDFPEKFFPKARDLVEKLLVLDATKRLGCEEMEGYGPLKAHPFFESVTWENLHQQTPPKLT

Compound	EC50 [1, 3] [µM]	IC50 [2, 4] [µM]	EC50 [1, 5] [µM]	IC50 ([2]; inhibition of PDK1 in vitro) [µM]	EC50 ([1]; PC-3, 2 h, inhibition of P308 Akt in PC-3 cells, MSD) [µM]
Nc1n[nH]c2ncc(-c3ccc(CNc4ncc(C(F)(F)F)nc4C(=O)Nc4ccc(F)cc4)cc3)cc12 [Example 39, 3-(4-(3-amino-1H-pyrazolo[3,4-b]pyridin-5-yl)benzylamino)-N-(4-fluorophenyl)-6-(trifluoromethyl)pyrazine-2-carboxamide]	< 1	< 0.1			
C[C@H](NC(=O)c1cc(C#N)cnc1NCc1ccc(-c2cnc(N)c(C#N)c2)cc1)c1ccc(F)cc1 [Example 115, (S)-2-(4-(6-amino-5-cyanopyridin-3-yl)benzylamino)-5-cyano-N-(1-(4-fluorophenyl)ethyl) nicotinamide]			> 10	< 0.1	
CC(C)(C)NS(=O)(=O)c1cnc(NCc2ccc(-c3ccc4ncnc(N)c4c3)s2)c(C(=O)NCc2ccc(F)c(F)c2)c1 [Example 8.6.20, 2-(((5-(4-aminoquinazolin-6-yl)thiophen-2-yl)methyl)amino)-5-(N-tert-butylsulfamoyl)-N-(3,4-difluorobenzyl)nicotinamide]	> 10	0.1 to 1			
Nc1n[nH]c2ncc(-c3ccc(CNc4ncc(C(F)(F)F)cc4C(=O)NCC4CCOC4)cc3)cc12 (stereo not drawn) [Example 268, 2-(4-(3-amino-1H-pyrazolo [3,4-b]pyridin-5-yl)benzylamino)-N-((tetrahydro-furan-3-yl)methyl)-5-(trifluoromethyl) nicotinamide]			> 10	0.1 to 1	
N#Cc1cnc2c(c1)c(NCc1ccc(F)c(F)c1)nn2Cc1ccc(-c2cnc(N)cn2)cc1 [Example 259, 1-(4-(5-aminopyrazin-2-yl)benzyl)-3-(3,4-difluorobenzylamino)-1H-pyrazolo[3,4-b]pyridine-5-carbonitrile]			> 10	0.1 to 1	
C[C@H](NC(=O)c1cc(C#N)cnc1NCc1ccc(-c2cnc3[nH]nc(N)c3c2)nc1)c1ccc(F)cc1 [Example 66, 2-{[6-(3-Amino-1H-pyrazolo[3,4-b]pyridin-5-yl)-pyridin-3-ylmethyl]-amino}-5-cyano-N-[(S)-1-(4-fluoro-phenyl)-ethyl]-nicotinamide]			< 1	< 0.1	
Nc1n[nH]c2ncc(-c3ccc(CNc4nccc5ncn(Cc6ccc(F)c(F)c6)c(=O)c45)cc3)cc12 [Example 40, 5-(4-(3-amino-1H-pyrazolo[3,4-b]pyridin-5-yl)benzylamino)-3-(3,4-difluorobenzyl)pyrido[4,3-d]pyrimidin-4(3H)-one]	< 1	< 0.1			
N#Cc1cccc(NC(=O)c2cc(C(F)(F)F)cnc2NCc2ccc(-c3cnc4[nH]nc(N)c4c3)cc2)c1 [Example 439, 2-(4-(3-amino-1H-pyrazolo[3,4-b]pyridin-5-yl)benzylamino)-N-(3-cyanophenyl)-5-(trifluoromethyl) nicotinamide]			1 to 10	< 0.1	
C[C@H](NC(=O)c1cc(C#N)cnc1N[C@H](CC(N)=O)c1ccc(-c2c[nH]c3ncnc(N)c23)cc1)c1ccc(F)cc1 [Example 46, 2-((R)-3-amino-1-(4-(4-amino-7H-pyrrolo[2,3-d]pyrimidin-5-yl)phenyl)-3-oxopropylamino)-5-cyano-N—((S)-1-(4-fluorophenyl)ethyl)nicotinamide]			> 10	< 0.1	
C[C@@H](Nc1ncc(C(F)(F)F)cc1C(=O)Nc1ccc(F)cc1)c1ccc(-c2cnc3[nH]nc(N)c3c2)cc1 [Example 422, 2-{(R)-1-[4-(3-Amino-1H-pyrazolo[3,4-b]pyridin-5-yl)-phenyl]-ethylamino}-N-(4-fluoro-phenyl)-5-trifluoromethyl-nicotinamide]			< 1	< 0.1	
Nc1n[nH]c2ncc(-c3ccc(CNc4ncc(C(F)(F)F)cc4C(=O)NC4CCOC4)cc3)cc12 (stereo not drawn) [Example 305, 2-(4-(3-amino-1H-pyrazolo [3,4-b]pyridin-5-yl)benzylamino)-N-(tetrahydrofuran-3-yl)-5-(trifluoromethyl)nicotinamide]			1 to 10	0.1 to 1	
CN1CCN(Cc2cccc(NC(=O)c3cc(C(F)(F)F)cnc3NCc3ccc(-c4cnc5[nH]nc(N)c5c4)cc3)c2)CC1 [Example 440, 2-(4-(3-amino-1H-pyrazolo[3,4-b]pyridin-5-yl)benzylamino)-N-(3-((4-methylpiperazin-1-yl)methyl)phenyl)-5-(trifluoromethyl)nicotinamide]			1 to 10	0.1 to 1	
C[C@H](NC(=O)c1nc(C#N)cnc1NCc1ccc(-c2cn(CCCN(C)C)c3ncnc(N)c23)cc1)c1ccc(F)c(F)c1 [Example 316, (S)-3-(4-(4-amino-7-(3-(dimethylamino)propyl)-7H-pyrrolo[2,3-d]pyrimidin-5-yl)benzylamino)-6-cyano-N-(1-(3,4-difluoro-phenyl)ethyl)pyrazine-2-carboxamide]			1 to 10	< 0.1	
C[C@H](NC(=O)c1cc(C#N)cnc1NCc1ccc(-c2cnc(N)c(N3CCNCC3)n2)cc1)c1ccc(F)cc1 [Example 191, 2-[4-(3′-Amino-3,4,5,6-tetrahydro-2H-[1,2′]bipyrazinyl-6′-yl)-benzylamino]-5-cyano-N-[(S)-1-(4-fluoro-phenyl)-ethyl]-nicotinamide]			< 1	< 0.1	
C[C@H](NC(=O)c1cc(C#N)cnc1NCc1ccc(-c2cnc(N)c(F)c2)cc1)c1ccc(F)cc1 [Example 110, (S)-2-(4-(6-amino-5-fluoropyridin-3-yl)benzylamino)-5-cyano-N-(1-(4-fluorophenyl)ethyl)nicotinamide]			< 1	< 0.1	
O=C(NCc1ccc(F)c(F)c1)c1cc(C(F)(F)F)cnc1NCc1ccc(-c2cnc(NCCO)cn2)cc1 [Example 229, N-(3,4-difluorobenzyl)-2-(4-(5-(2-hydroxyethylamino)pyrazin-2-yl)benzylamino)-5-(trifluoromethyl)nicotinamide]			1 to 10	0.1 to 1	
Nc1n[nH]c2ncc(-c3ccc(CNc4ncc(C(F)(F)F)cc4C(=O)Nc4c(F)cc(F)cc4F)cc3)cc12 [Example 278, 2-(4-(3-amino-1H-pyrazolo [3,4-b]pyridin-5-yl)benzylamino)-5-(trifluoromethyl)-N-(2,4,6-trifluorophenyl)nicotinamide]			< 1	< 0.1	

The remaining lines, values ahead:

EC50 [1, 3] [µM]	IC50 [2, 4] [µM]	EC50 [1, 5] [µM]	IC50 ([2]; inhibition of PDK1 in vitro) [µM]	EC50 ([1]; PC-3, 2 h, inhibition of P308 Akt in PC-3 cells, MSD) [µM]	Compound
1 to 10	< 0.1				O=C1Nc2cc(/C=C/CNc3ncccc3C(=O)NCc3ccc(F)c(F)c3)ccc2/C1=C/c1ncc[nH]1 [Example 15.12, N-(3,4-Difluoro-benzyl)-2-((E)-3-{3-[1-(1H-imidazol-2-yl)-meth-(Z)-ylidene]-2-oxo-2,3-dihydro-1H-indol-6-yl}-allylamino)-nicotinamide]
< 1	0.1 to 1				C[C@H](NC(=O)c1cccnc1NCc1ccc(-c2ccc3ncnc(N)c3c2)s1)c1ccc(F)cc1 [Example 3.15, 2-({[5-(4-aminoquinazolin-6-yl)thiophen-2-yl]methyl}amino)-N-[(1S)-1-(4-fluorophenyl)ethyl] pyridine-3-carboxamide]
< 1	< 0.1				O=C(NCc1ccc(F)c(F)c1)c1cccnc1NCc1csc(-c2c[nH]c3ncccc23)n1 [Ex. 6.12, N-(3,4-difluorobenzyl)-2-({[2-(1H-pyrrolo[2,3-b]pyridin-3-yl)-1,3-thiazol-4-yl]-methyl}amino) pyridine-3-carboxamide]
1 to 10	< 0.1				O=C(NCc1ccc(F)c(F)c1)c1cccnc1NCc1cccc(-c2c[nH]c3ncncc23)c1 [Example 6.2, 2-(3-(7H-pyrrolo[2,3-d]pyrimidin-5-yl)benzylamino)-N-(3,4-difluorobenzyl)nicotinamide]
< 1	< 0.1				C[C@H](NC(=O)c1cccnc1NCc1ccc(-c2ccc3ncnc(N)c3c2)s1)c1cc(F)c(F)c(F)c1 [Example 3.63, (S)-2-(((5-(4-aminoquinazolin-6-yl)thiophen-2-yl)methyl)amino)-N-(1-(3,4,5-trifluorophenyl)ethyl) nicotinamide (TFA salt)]
	0.1 to 1			1 to 10	C[C@H](NC(=O)c1cccnc1NCc1ccc(-c2ccc3ncc(N)nc3c2)s1)c1ccc(F)c(F)c1 [Example 4.30, (S)-2-(((5-(3-aminoquinoxalin-6-yl)thiophen-2-yl)methyl)amino)-N-(1-(3,4-difluorophenyl)ethyl) nicotinamide]
1 to 10	> 5				Nc1ncnc2ccc(-c3ccccc3CNc3ncccc3C(=O)NCc3ccc(F)c(F)c3)cc12 [Ex. 6.5, 2-{[2-(4-aminoquinazolin-6-yl)benzyl]amino}-N-(3,4-difluorobenzyl) pyridine-3-carboxamide]
> 10	< 0.1				O=C(NCc1ccc(F)c(F)c1)c1cccnc1NCc1ccc(-c2ccc3ncccc3c2)s1 [Example 4.5, N-(3,4-difluorobenzyl)-2-(((5-(quinolin-6-yl)thiophen-2-yl)methyl)amino)nicotinamide]
> 10	0.1 to 1				Nc1ncnc2ccc(-n3cc(CNc4ncccc4C(=O)NCc4ccc(F)c(F)c4)nn3)cc12 [Ex. 9.1, 2-((1-(4-aminoquinazolin-6-yl)-1H-1,2,3-triazol-4-yl)methylamino)-N-(3,4-difluorobenzyl)nicotinamide]
< 1	< 0.1				O=C(NCc1ccc(F)c(F)c1)c1cccnc1N[C@@H](COc1ccc2[nH]c(=O)[nH]c2c1)c1ccccc1 [Example 16.1, (R)-N-(3,4-difluorobenzyl)-2-(2-(2-oxo-2,3-dihydro-1H-benzo[d]imidazol-5-yloxy)-1-phenylethylamino)nicotinamide]
